Laboratory results published in article PMC7914897, “Cytotoxic Potential of a-Azepano- and 3-Amino-3,4-SeCo-Triterpenoids” (International Journal of Molecular Sciences, 2021).

Experiments:
COLO 205 (Colon cancer) = test: NCI-60 screen (SRB, 48 h)
HCT-15 (Colon cancer) = test: NCI-60 screen (SRB, 48 h); settings: Homo sapiens
KM12 (Colon cancer) = test: NCI-60 screen (SRB, 48 h); settings: Homo sapiens
OVCAR-3 (Ovarian cancer) = test: cells; settings: Homo sapiens
Prostate cancer subpanel = test: NCI-60 screen, subpanel; settings: Homo sapiens
MALME-3M (Melanoma) = test: NCI-60 screen (SRB, 48 h); settings: Homo sapiens
T-47D (Breast cancer) = test: NCI-60 screen (SRB, 48 h); settings: Homo sapiens, T47D
TK-10 (Renal cancer) = test: NCI-60 screen (SRB, 48 h); settings: Homo sapiens
HCC-2998 (Colon cancer) = test: NCI-60 screen (SRB, 48 h); settings: Homo sapiens
SK-MEL-5 (Melanoma) = test: NCI-60 screen (SRB, 48 h); settings: Homo sapiens
MOLT-4 (Leukemia) = test: NCI-60 screen (SRB, 48 h); settings: Homo sapiens
HS 578T (Breast cancer) = test: NCI-60 screen (SRB, 48 h); settings: Homo sapiens
SNB-19 (CNS cancer) = test: NCI-60 screen (SRB, 48 h); settings: Homo sapiens
SR (Leukemia) = test: NCI-60 screen (SRB, 48 h); type: cell-based
RPMI-8226 (Leukemia) = test: NCI-60 screen (SRB, 48 h); settings: Homo sapiens
UO-31 (Renal cancer) = test: NCI-60 screen (SRB, 48 h); settings: Homo sapiens
DU-145 (Prostate cancer) = test: NCI-60 screen (SRB, 48 h); settings: Homo sapiens
Melanoma subpanel = test: NCI-60 screen, subpanel; settings: Homo sapiens
HT29 (Colon cancer) = test: NCI-60 screen (SRB, 48 h); settings: Homo sapiens
MCF7 (Breast cancer) = test: NCI-60 screen (SRB, 48 h); settings: Homo sapiens
MDA-MB-435 (Melanoma) = test: NCI-60 screen (SRB, 48 h); type: cell-based; settings: Homo sapiens
HOP-92 (NSC lung cancer) = test: NCI-60 screen (SRB, 48 h); settings: Homo sapiens
K-562 (Leukemia) = test: NCI-60 screen (SRB, 48 h); settings: Homo sapiens
IGROV1 (Ovarian cancer) = test: NCI-60 screen (SRB, 48 h); settings: Homo sapiens
[1] = test system: NCI-H226 (NSC lung cancer); test: NCI-60 screen (SRB, 48 h); settings: Homo sapiens
UACC-257 (Melanoma) = test: NCI-60 screen (SRB, 48 h); settings: Homo sapiens
SW-620 (Colon cancer) = test: NCI-60 screen (SRB, 48 h); settings: Homo sapiens
Leukemia subpanel = test: cells; settings: Homo sapiens

CC(C)=C1CCC=C2CC[C@]3(C)[C@H](CC[C@@H]4[C@@]5(C)CCCNC(C)(C)[C@@H]5CC[C@]43C)[C@H]21 [Compound 9]
Growth % of the Most Sensitive Cell Lines (COLO 205 (Colon cancer); COLO 205, 1 dose 10 µM): −93.54% | GI50 (COLO 205 (Colon cancer); Homo sapiens, COLO 205): 1.48 µM | IC (TGI) (COLO 205 (Colon cancer); Homo sapiens, COLO 205, 48 h, read-out: TGI): 2.97 µM | GI50 (HCT-15 (Colon cancer); HCT-15): 1.4 µM | IC (TGI) (HCT-15 (Colon cancer); HCT-15, 48 h, read-out: TGI): 2.81 µM | GI50 (KM12 (Colon cancer); KM12): 1.92 µM | IC (TGI) (KM12 (Colon cancer); KM12, 48 h, read-out: TGI): 3.42 µM | GI50 (OVCAR-3 (Ovarian cancer); OVCAR-3): 1.91 µM | IC (TGI) (OVCAR-3 (Ovarian cancer); OVCAR-3, 48 h, read-out: TGI): 3.37 µM | CC50 (OVCAR-3 (Ovarian cancer); OVCAR-3, read-out: LC50): 5.93 µM | IC (TGI) (Prostate cancer subpanel; 48 h, read-out: TGI MG_MID): 3.29 µM | GI50 (Prostate cancer subpanel; read-out: GI50 MG_MID): 1.78 µM | CC50 (Prostate cancer subpanel; read-out: LC50 MG_MID): 6.08 µM | GI50 (MALME-3M (Melanoma)): 1.77 µM | IC (TGI) (MALME-3M (Melanoma); 48 h, read-out: TGI): 3.48 µM | CC50 (MALME-3M (Melanoma); read-out: LC50): 6.84 µM | GI50 (T-47D (Breast cancer)): 1.63 µM | IC (TGI) (T-47D (Breast cancer); 48 h, read-out: TGI): 3.46 µM | GI50 (TK-10 (Renal cancer); TK-10): 1.81 µM | IC (TGI) (TK-10 (Renal cancer); TK-10, 48 h, read-out: TGI): 3.37 µM | CC50 (TK-10 (Renal cancer); TK-10, read-out: LC50): 6.3 µM | GI50 (HCC-2998 (Colon cancer); HCC 2998): 1.74 µM | IC (TGI) (HCC-2998 (Colon cancer); HCC 2998, 48 h, read-out: TGI): 3.19 µM | GI50 (SK-MEL-5 (Melanoma); SK-MEL-5): 1.7 µM | IC (TGI) (SK-MEL-5 (Melanoma); SK-MEL-5, 48 h, read-out: TGI): 3.08 µM | CC50 (SK-MEL-5 (Melanoma); SK-MEL-5, read-out: LC50): 5.56 µM | GI50 (MOLT-4 (Leukemia); MOLT-4): 1.59 µM | IC (TGI) (MOLT-4 (Leukemia); MOLT-4, 48 h, read-out: TGI): 3.7 µM | GI50 (HS 578T (Breast cancer)): 1.79 µM | IC (TGI) (HS 578T (Breast cancer); 48 h, read-out: TGI): 4.04 µM | CC50 (HS 578T (Breast cancer); read-out: LC50): 9.11 µM | GI50 (SNB-19 (CNS cancer); SNB-19): 1.81 µM | IC (TGI) (SNB-19 (CNS cancer); SNB-19, 48 h, read-out: TGI): 3.36 µM | TGI (SR (Leukemia)): 3.16 µM | GI50 (SR (Leukemia); Homo sapiens): 1.14 µM | GI50 (RPMI-8226 (Leukemia); RPMI-8226): 2.06 µM | IC (TGI) (RPMI-8226 (Leukemia); RPMI-8226, 48 h, read-out: TGI): 4.1 µM | GI50 (UO-31 (Renal cancer); UO-31): 1.47 µM | IC (TGI) (UO-31 (Renal cancer); UO-31, 48 h, read-out: TGI): 2.82 µM | CC50 (UO-31 (Renal cancer); UO-31, read-out: LC50): 5.42 µM | GI50 (DU-145 (Prostate cancer); DU-145): 1.98 µM | IC (TGI) (DU-145 (Prostate cancer); DU-145, 48 h, read-out: TGI): 3.55 µM | CC50 (DU-145 (Prostate cancer); DU-145, read-out: LC50): 6.38 µM | IC (TGI) (Melanoma subpanel; 48 h, read-out: TGI MG_MID): 3.3 µM | GI50 (Melanoma subpanel; read-out: GI50 MG_MID): 1.77 µM | CC50 (Melanoma subpanel; read-out: LC50 MG_MID): 6.17 µM | GI50 (HT29 (Colon cancer); HT-29): 0.94 µM | IC (TGI) (HT29 (Colon cancer); HT-29, 48 h, read-out: TGI): 2.31 µM | GI50 (MCF7 (Breast cancer); MCF7): 1.77 µM | IC (TGI) (MCF7 (Breast cancer); MCF7, 48 h, read-out: TGI): 3.54 µM | GI50 (MDA-MB-435 (Melanoma); MDA-MB-435): 1.85 µM | IC (TGI) (MDA-MB-435 (Melanoma); MDA-MB-435, 48 h, read-out: TGI): 3.28 µM | CC50 (MDA-MB-435 (Melanoma); MDA-MB-435, read-out: LC50 (the source's name)): 5.81 µM | GI50 (HOP-92 (NSC lung cancer); HOP-92): 1.39 µM | IC (TGI) (HOP-92 (NSC lung cancer); HOP-92, 48 h, read-out: TGI): 2.77 µM | CC50 (HOP-92 (NSC lung cancer); HOP-92, read-out: LC50): 5.52 µM | GI50 (K-562 (Leukemia); K562): 1.25 µM | IC (TGI) (K-562 (Leukemia); K562, 48 h, read-out: TGI): 3.5 µM | GI50 (IGROV1 (Ovarian cancer); IGROV-1): 1.73 µM | IC (TGI) (IGROV1 (Ovarian cancer); IGROV-1, 48 h, read-out: TGI): 3.27 µM | GI50 ([1]; NCI-H226): 1.79 µM | IC (TGI) ([1]; NCI-H226, 48 h, read-out: TGI): 3.54 µM | GI50 (UACC-257 (Melanoma); UACC-257): 1.86 µM | IC (TGI) (UACC-257 (Melanoma); UACC-257, 48 h, read-out: TGI): 3.63 µM | CC50 (UACC-257 (Melanoma); UACC-257, read-out: LC50): 7.09 µM | GI50 (SW-620 (Colon cancer); SW-620): 1.66 µM | IC (TGI) (SW-620 (Colon cancer); SW-620, 48 h, read-out: TGI): 3.23 µM | IC (TGI) (Leukemia subpanel; 48 h, read-out: TGI MG_MID): 3.59 µM | GI50 (Leukemia subpanel; read-out: GI50 MG_MID): 1.55 µM | CC50 (Leukemia subpanel; read-out: LC50 MG_MID): 7.19 µM
